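Grown in 96-well plates, cells were treated for 48 hours with each compound at five concentrations. Insufficient inhibition: endpoint recorded as highest concentration tested. Definition used: TGI = concentration required for complete inhibition of growth.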
Experiments:
Assay in all cases: NCI tumour cell line growth inhibition, 48 h
UACC-62 melanoma = tested on: UACC-62 melanoma
EKVX NSCLC = tested on: EKVX NSCLC
LOX IMVI melanoma = tested on: LOX IMVI melanoma
SR leukemia = tested on: SR leukemia
U251 CNS = tested on: U251 CNS
IGROV1 ovarian = tested on: IGROV1 ovarian
MDA-N = tested on: MDA-N
NCI-H23 lung = tested on: NCI-H23 lung
SK-MEL-2 melanoma = tested on: SK-MEL-2 melanoma
SK-OV-3 ovarian = tested on: SK-OV-3 ovarian
MCF7 breast = tested on: MCF7 breast
NCI/ADR-RES ovarian = tested on: NCI/ADR-RES ovarian
HS 578T breast = tested on: HS 578T breast
CCRF-CEM leukemia = tested on: CCRF-CEM leukemia
MALME-3M melanoma = tested on: MALME-3M melanoma
SK-MEL-28 melanoma = tested on: SK-MEL-28 melanoma

Row | Compound | TGI (UACC-62 melanoma) [µM] | TGI (EKVX NSCLC) [µM] | TGI (LOX IMVI melanoma) [µM] | TGI (SR leukemia) [µM] | TGI (U251 CNS) [µM] | TGI (IGROV1 ovarian) [µM] | TGI (MDA-N) [µM] | TGI (NCI-H23 lung) [µM] | TGI (SK-MEL-2 melanoma) [µM] | TGI (SK-OV-3 ovarian) [µM] | TGI (MCF7 breast) [µM] | TGI (NCI/ADR-RES ovarian) [µM] | TGI (HS 578T breast) [µM] | TGI (CCRF-CEM leukemia) [µM] | TGI (MALME-3M melanoma) [µM] | TGI (SK-MEL-28 melanoma) [µM]
1 | O=c1c2cc(S(=O)(=O)O)ccc2nc(COc2ccc(Oc3ccc(Cl)cc3Cl)cc2)n1-c1ccc(Cl)cc1Oc1c(Cl)cccc1Cl | 48.9 | 40.4 | 32.2 | 96.7 | 40.5 | > 100 | 99.4 | 57.1 | 35.6 | 63.2 | 45.6 | 77.4 | 76.3 | > 100 | > 100 | –
2 | c1ccc2c(c1)nc1n2CNC1 | > 100 | > 100 | > 100 | > 100 | > 100 | > 100 | > 100 | > 100 | > 100 | > 100 | > 100 | > 100 | > 100 | > 100 | – | > 100
3 | COC(=O)C1C(=O)C=CN([C@H](C)c2ccccc2)[C@@H]1Cc1ccc(OC)c(OCc2ccccc2)c1I (some centres not stated) | 25.7 | > 100 | 27.8 | > 100 | 39.7 | 29.5 | 34.3 | 40.3 | 40 | > 100 | 49.3 | 42.9 | > 100 | > 100 | 39.6 | > 100
4 | CN(C)CCCN1c2ccccc2Sc2cnccc21 | > 100 | > 100 | > 100 | > 100 | > 100 | > 100 | > 100 | – | 94 | > 100 | > 100 | > 100 | > 100 | > 100 | > 100 | > 100
5 | CCOP(=O)(CN1CCNCCNCC1)OCC | > 100 | > 100 | > 100 | > 100 | > 100 | > 100 | > 100 | – | > 100 | > 100 | > 100 | > 100 | > 100 | > 100 | – | > 100
6 | Cc1cccc2c(N)c3cccc(C(=O)NCC[N+](C)(C)Cc4c([N+](=O)[O-])ncn4C)c3nc12 | > 100 | > 100 | 35.6 | > 100 | > 100 | > 100 | > 100 | > 70.2 | > 100 | > 71.1 | > 47.3 | > 100 | > 96.1 | > 100 | > 100 | > 100
7 | O=C1CCCC2(c3ccccc3)Nc3ccccc3N12 (configuration not stated) | > 100 | > 100 | > 100 | > 100 | > 100 | > 100 | > 100 | > 100 | > 100 | > 100 | > 100 | > 100 | > 100 | > 100 | > 100 | > 100
8 | CC(=O)OC1(C)C=CC(=O)C=C1 | 35.7 | > 100 | > 100 | > 100 | 28.7 | 31.6 | > 100 | 75.2 | 98.4 | > 100 | > 100 | 26.3 | > 100 | > 100 | – | 69.6
9 | C=C(CC[C@@H](C)[C@H]1CC[C@@]2(C)C3=C(CC[C@]12C)[C@@]1(C)CC[C@H](O)[C@@H](C)C1CC3)C(C)C (some centres not stated) | 2.61 | 2.42 | 2 | 2.71 | 3.11 | 8.32 | 2.33 | 2.51 | 2.93 | 2.79 | 2.69 | 3.65 | 3.13 | 2.22 | 2.51 | 2.51
10 | Cc1ccc(C)c(COCCOCn2ccc(N)nc2=O)c1 | > 100 | > 100 | > 100 | > 100 | > 100 | > 100 | > 100 | > 100 | > 100 | > 100 | > 100 | > 100 | > 100 | > 100 | > 100 | > 100
11 | CC1=CC(=O)N(n2c(Cc3ccccc3)n[nH]c2=O)C1=O | > 100 | > 100 | > 100 | > 100 | > 100 | > 100 | > 100 | > 100 | > 100 | > 100 | > 100 | > 100 | > 100 | 62.7 | > 100 | –
12 | Cc1ccc(NC(=O)c2cccc(OP(=O)(O)Nc3ccc(C)cc3)c2)cc1 | > 100 | > 100 | > 100 | > 100 | > 100 | > 100 | > 100 | > 100 | > 100 | > 100 | > 100 | > 100 | > 100 | > 100 | > 100 | > 100
13 | CNC(=O)N1CN(c2ccccc2)C2(CCN(CCCC3(c4ccc(F)cc4)OCCO3)CC2)C1=O | > 100 | > 100 | > 100 | > 100 | > 100 | > 100 | > 100 | > 100 | > 100 | > 100 | > 100 | > 100 | > 100 | > 100 | > 100 | > 100
14 | CC(=O)N[C@@H](Cc1ccc(O)cn1)C(=O)NCc1cccc(Cl)c1 | > 100 | > 100 | > 100 | > 100 | > 100 | > 100 | > 100 | > 100 | > 100 | > 100 | > 100 | > 100 | > 100 | > 100 | – | > 100
15 | Cc1[nH]n(C2=NCCN2)c(=O)c1Cc1ccccc1 | > 100 | > 100 | > 100 | > 100 | > 100 | > 100 | > 100 | > 100 | > 100 | > 100 | > 100 | > 100 | > 100 | > 100 | > 100 | –
16 | CC(C)(C)c1ccc(-c2nc3ccc(Cl)cc3c(=O)o2)cc1 | 56.5 | 70 | 31 | 47.9 | 31.3 | 87.2 | 64 | 35 | 44.2 | 68.7 | 61.7 | 67.1 | > 100 | 34.2 | 50.9 | 57.2
17 | CC(=NNC(=S)Nc1ccc(C)cc1)c1cccc(C(C)=NNC(=S)Nc2ccc(C)cc2)n1 | > 100 | > 100 | 91.7 | 27.1 | 97 | 75.4 | > 100 | > 100 | > 100 | 97.6 | > 100 | 58.8 | > 100 | > 100 | 46.9 | > 100
18 | Cc1ccc(NC(=S)N/N=C(/c2ccccc2)c2ccccn2)cc1 | 10.1 | 12.9 | 14.9 | > 20.5 | 12.9 | 18.9 | 19.5 | 26.7 | 15.1 | 9.29 | 15.7 | > 80.2 | 81.8 | – | 9.23 | 2.32
19 | COc1ccc(N2C(=O)C3ON(C(C(N)=O)c4ccccc4)C(c4cc5ccccc5c5ccccc45)C3C2=O)cc1 (configuration not stated) | > 50 | > 50 | > 50 | > 50 | > 50 | > 50 | 35.6 | > 50 | > 50 | > 50 | > 50 | > 50 | > 50 | > 50 | > 50 | > 50
20 | COc1cc(/C=C2\N=C(c3ccccc3)N(c3nc4c(OC)ccc(OC)c4s3)C2=O)ccc1O | > 100 | > 100 | 53.2 | > 100 | > 100 | > 100 | 62 | > 100 | > 100 | > 100 | 33.2 | > 100 | > 100 | > 100 | > 100 | > 100
21 | N#C/C(N)=C(\C#N)N=CN | > 100 | > 100 | > 100 | > 100 | > 100 | > 100 | > 100 | > 100 | > 100 | > 100 | > 100 | > 100 | > 100 | > 100 | > 100 | > 100
22 | O=C(O)[C@@H]1CSCN1C(=O)[C@@H]1CCC(=S)N1 | – | – | > 100 | > 100 | – | > 100 | > 100 | > 100 | > 100 | > 100 | > 100 | > 100 | > 100 | > 100 | > 100 | > 100
23 | O=C(Cc1ccccc1)N/N=C/c1ccccc1O | 47.9 | > 100 | > 100 | > 100 | > 100 | 81.8 | > 100 | > 100 | > 100 | > 100 | > 100 | > 100 | > 100 | > 100 | 66.6 | > 100
24 | COc1cc2c(cc1OC)CCc1cc(OC)c(OC)cc1CC2 | > 100 | > 100 | > 100 | > 100 | > 100 | > 100 | > 100 | > 100 | > 100 | > 100 | > 100 | > 100 | > 100 | > 100 | > 100 | > 100
25 | O=C1N[C@@H](c2c[nH]c3cc(Br)ccc23)C(=O)N[C@H]1c1c[nH]c2cc(Br)ccc12 | > 100 | > 100 | > 100 | > 100 | 60.1 | > 100 | > 100 | > 100 | > 100 | > 100 | > 100 | > 100 | > 100 | > 100 | > 100 | > 100
26 | CC1ON2CCCC2[C@H]1C(=O)N1C2CC3CCC2(CS1(=O)=O)C3(C)C (some centres not stated) | > 100 | > 100 | > 100 | > 100 | > 100 | > 100 | > 100 | > 100 | > 100 | > 100 | > 100 | > 100 | > 100 | > 100 | > 100 | > 100
27 | COC(=O)C1=C(C(=O)OC)c2cc(OC)ccc2C(C(=S)N(C)C)S1 (configuration not stated) | > 100 | > 100 | > 100 | > 100 | > 100 | > 100 | > 100 | > 100 | > 100 | > 100 | > 100 | > 100 | > 100 | – | > 100 | > 100
28 | O=c1[nH]c(Nc2nc3ccccc3[nH]2)nc2c1CCC2 | > 100 | – | > 100 | > 100 | > 100 | > 100 | > 100 | > 100 | > 100 | > 100 | > 100 | > 100 | 63.5 | > 100 | > 100 | > 100
29 | Cc1ccc(N=Nc2c(C)c(C#N)c(=S)n(C3OC(CO)C(O)C(O)C3O)c2C)cc1 (configuration not stated) | 29 | – | 45 | > 100 | 52.6 | > 100 | > 100 | > 100 | 89.7 | > 100 | > 100 | > 100 | > 100 | > 100 | 42.7 | 44.7
30 | O=c1oc2cc(O)ccc2c(O)c1C(c1ccccc1F)c1c(O)c2ccc(O)cc2oc1=O | > 100 | > 100 | > 100 | > 100 | > 100 | > 100 | > 100 | > 100 | > 100 | > 100 | > 100 | > 100 | > 100 | – | – | > 100
